System: ob/ob mouse
Test: Antidiabetic and hypolipidaemic effect in the ob/ob mouse
Assay type: in vivo
Details: female ob/ob mouse; for decrease of glycaemia compared to the control group: twice per day for four days (10 mg/kg i.p. or 30 mg/kg per os; route not given), glycaemia 24 hours after final administration
Excerpt: Mutations in laboratory animals and also different sensitivities to dietary regimens have allowed the development of animal models having non-insulin dependent diabetes and hyperlipidaemia associated with obesity and with resistance to insulin.
Genetic mice models (ob/ob) (Diabetes, 1982, 31 (1), 1–6) and Zucker (fa/fa) rats have been developed by various laboratories in order to understand the physiopathology of those diseases and test the efficacy of new antidiabetic compounds (Diabetes, 1983, 32, 830–838).
Antidiabetic and Hypolipidaemic Effect in the ob/ob Mouse
The 10-week-old female ob/ob mouse (Harlan) is used for the in vivo tests. The animals are kept in a light-darkness cycle of 12 hours at 25° C. The mouse has a basal hyperglycaemia of 2 g/l. The animals are randomly selected in terms of their glycaemia to form groups of six. The compounds tested by the intraperitoneal route are dissolved in a mixture of dimethyl sulphoxide (10%) and Solutol (15%) to be administered at 10 mg/kg in a volume of 2.5 ml/kg twice per day for four days. By the per os route, the compounds are tested at 30 mg/kg administered in a volume of 2.5 ml/kg of 1% HEC twice per day for four days. The control groups receive the solvents under the same conditions as the treated groups. The activity of the products is evaluated by measuring glycaemia 24 hours after the final administration and by measuring body weight daily.

| SMILES | decrease of the gain of weight compared to the control group (twice per day for four days) | decrease of glycaemia compared to the control group | change in body weight (four days treatment, body weight measured daily) | increase of the body weight compared to the increase of body weight of the control group (twice per day for four days) |
| --- | --- | --- | --- | --- |
| CON=C(c1ccccc1)c1ccc2c(c1)sc(=O)n2CCOc1ccc(CC(OCC(F)(F)F)C(=O)OC)cc1 (centres unmarked) [Example 3, Methyl 3-{4-[2-(6-[(methoxyimino)(phenyl)methyl]-2-oxo-1,3-benzothiazol-3(2H)-yl)ethoxy]phenyl}-2-(2,2,2-trifluoroethoxy)-propanoate] | 80% | 51% | – | – |
| CN(CCOc1ccc(CC2SC(=O)NC2=O)cc1)c1ccccn1 (centres unmarked) [Rosiglitazone, rosiglitazone] | – | 61% | significant increase | 33% |

Reference: US7071221B2, “Heterocyclic oxime compounds” (Les Laboratoires Servier, priority 2004, dated 2006)
